Measured values published in the NIST ThermoML archive (doi:10.1016/j.jct.2010.08.021).

Test: mn = molality of the nth substance listed, in mol/kg
Details: 101 kPa, Liquid; for speed of sound: Sing-around technique in a fixed-path interferometer; for mass density: Vibrating tube method

NCC(=O)O [2-aminoacetic acid] + O
Details | mass density [kg/m3] | speed of sound [m/s]
288.15 K, m1 = 0.0303 | 1000.1 | 1468.3
288.15 K, m1 = 0.0407 | 1000.43 | 1468.9
288.15 K, m1 = 0.0487 | 1000.69 | 1469.4
288.15 K, m1 = 0.0549 | 1000.89 | 1469.7
288.15 K, m1 = 0.0649 | 1001.22 | 1470.3
288.15 K, m1 = 0.066 | 1001.25 | 1470.3
288.15 K, m1 = 0.0799 | 1001.7 | 1471.1
288.15 K, m1 = 0.0959 | 1002.22 | 1472
288.15 K, m1 = 0.1125 | 1002.76 | 1472.9
288.15 K, m1 = 0.1349 | 1003.48 | 1474.1
288.15 K, m1 = 0.1608 | 1004.3 | 1475.5
288.15 K, m1 = 0.1908 | 1005.26 | 1477.2
288.15 K, m1 = 0.2165 | 1006.07 | 1478.6
288.15 K, m1 = 0.2303 | 1006.51 | 1479.4
288.15 K, m1 = 0.2506 | 1007.15 | 1480.5
288.15 K, m1 = 0.2735 | 1007.87 | 1481.8
293.15 K, m1 = 0.0303 | 999.187 | 1484.4
293.15 K, m1 = 0.0407 | 999.52 | 1484.9
293.15 K, m1 = 0.0487 | 999.773 | 1485.4
293.15 K, m1 = 0.0549 | 999.972 | 1485.7
293.15 K, m1 = 0.0649 | 1000.29 | 1486.2
293.15 K, m1 = 0.066 | 1000.32 | 1486.3
293.15 K, m1 = 0.0799 | 1000.77 | 1487
293.15 K, m1 = 0.0959 | 1001.28 | 1487.9
293.15 K, m1 = 0.1125 | 1001.81 | 1488.8
293.15 K, m1 = 0.1349 | 1002.52 | 1489.9
293.15 K, m1 = 0.1608 | 1003.34 | 1491.3
293.15 K, m1 = 0.1908 | 1004.28 | 1493
293.15 K, m1 = 0.2165 | 1005.08 | 1494.4
293.15 K, m1 = 0.2303 | 1005.52 | 1495.1
293.15 K, m1 = 0.2506 | 1006.15 | 1496.2
293.15 K, m1 = 0.2735 | 1006.86 | 1497.4
298.15 K, m1 = 0.0303 | – | 1498.6
298.15 K, m1 = 0.0407 | 998.344 | 1499.1
298.15 K, m1 = 0.0487 | – | 1499.5
298.15 K, m1 = 0.0549 | 998.79 | 1499.9
298.15 K, m1 = 0.0649 | 999.104 | 1500.4
298.15 K, m1 = 0.066 | 999.138 | 1500.4
298.15 K, m1 = 0.0799 | 999.58 | 1501.2
298.15 K, m1 = 0.0959 | 1000.09 | 1502
298.15 K, m1 = 0.1125 | 1000.61 | 1502.9
298.15 K, m1 = 0.1349 | 1001.31 | 1504
298.15 K, m1 = 0.1608 | 1002.12 | 1505.3
298.15 K, m1 = 0.1908 | 1003.05 | 1506.9
298.15 K, m1 = 0.2165 | 1003.84 | 1508.2
298.15 K, m1 = 0.2303 | 1004.27 | 1508.9
298.15 K, m1 = 0.2506 | 1004.9 | 1510
298.15 K, m1 = 0.2735 | 1005.61 | 1511.2
303.15 K, m1 = 0.0303 | 996.608 | 1510.9
303.15 K, m1 = 0.0407 | 996.933 | 1511.4
303.15 K, m1 = 0.0487 | – | 1511.8
303.15 K, m1 = 0.0549 | 997.375 | 1512.2
303.15 K, m1 = 0.0649 | – | 1512.7
303.15 K, m1 = 0.066 | – | 1512.7
303.15 K, m1 = 0.0799 | 998.158 | 1513.4
303.15 K, m1 = 0.0959 | 998.661 | 1514.3
303.15 K, m1 = 0.1125 | 999.18 | 1515.1
303.15 K, m1 = 0.1349 | 999.878 | 1516.2
303.15 K, m1 = 0.1608 | 1000.67 | 1517.5
303.15 K, m1 = 0.1908 | 1001.6 | 1519
303.15 K, m1 = 0.2165 | 1002.38 | 1520.3
303.15 K, m1 = 0.2303 | 1002.81 | 1521
303.15 K, m1 = 0.2506 | 1003.43 | 1522
303.15 K, m1 = 0.2735 | 1004.13 | 1523.2
308.15 K, m1 = 0.0303 | 994.983 | 1521.5
308.15 K, m1 = 0.0407 | – | 1522
308.15 K, m1 = 0.0487 | 995.552 | 1522.5
308.15 K, m1 = 0.0549 | – | 1522.8
308.15 K, m1 = 0.0649 | – | 1523.3
308.15 K, m1 = 0.066 | – | 1523.3
308.15 K, m1 = 0.0799 | – | 1524
308.15 K, m1 = 0.0959 | 997.02 | 1524.8
308.15 K, m1 = 0.1125 | 997.536 | 1525.6
308.15 K, m1 = 0.1349 | 998.23 | 1526.7
308.15 K, m1 = 0.1608 | 999.021 | 1528
308.15 K, m1 = 0.1908 | 999.936 | 1529.5
308.15 K, m1 = 0.2165 | 1000.72 | 1530.7
308.15 K, m1 = 0.2303 | 1001.14 | 1531.4
308.15 K, m1 = 0.2506 | 1001.76 | 1532.4
308.15 K, m1 = 0.2735 | 1002.45 | 1533.5
313.15 K, m1 = 0.0303 | 993.159 | 1530.6
313.15 K, m1 = 0.0407 | 993.481 | 1531.1
313.15 K, m1 = 0.0487 | 993.725 | 1531.5
313.15 K, m1 = 0.0549 | 993.917 | 1531.8
313.15 K, m1 = 0.0649 | 994.224 | 1532.3
313.15 K, m1 = 0.066 | 994.257 | 1532.3
313.15 K, m1 = 0.0799 | 994.689 | 1533
313.15 K, m1 = 0.0959 | 995.187 | 1533.8
313.15 K, m1 = 0.1125 | – | 1534.6
313.15 K, m1 = 0.1349 | – | 1535.6
313.15 K, m1 = 0.1608 | – | 1536.9
313.15 K, m1 = 0.1908 | 998.083 | 1538.3
313.15 K, m1 = 0.2165 | – | 1539.5
313.15 K, m1 = 0.2303 | 999.28 | 1540.2
313.15 K, m1 = 0.2506 | 999.893 | 1541.2
313.15 K, m1 = 0.2735 | 1000.58 | 1542.3
